Laboratory results taken from PMC6631462, “Quaternary Ammonium Leucine-Based Surfactants: The Effect of a Benzyl Group on Physicochemical Properties and Antimicrobial Activity” (Pharmaceutics, 2019).
“And” between values parts separate entries of the source, which are not always exact repeats. Equal entries are not always repeated. Where two headings read alike, the source gives them in different places.

Tests used:
[1] = test system: Candida albicans ATCC 24433; experiment: Antimicrobial assay, MIC determination (adapted to yeast); format: cell-based; settings: for MIC: C. albicans; for Selectivity index EC50/MIC: MIC C. albicans
Protocol: (§1) Bacterial strains were cultured overnight at 35–36 °C in blood agar plates. Minimum inhibitory concentrations (MICs) were determined according to previous reports and following protocols defined by the European Committee on Antimicrobial Susceptibility Testing (EUCAST). MICs against Candida albicans were determined using a similar protocol with some adaptations to the yeast growth and requirements. All tests were done in triplicate. [table]

[2] = test system: Staphylococcus aureus ATCC 25923; experiment: Antimicrobial assay, MIC determination (EUCAST); format: cell-based; settings: for Selectivity index EC50/MIC: MIC S. aureus; for MIC: S. aureus
Protocol: as §1

[3] = test system: Enterococcus faecalis ATCC 29212; experiment: Antimicrobial assay, MIC determination (EUCAST); format: cell-based; settings: for Selectivity index EC50/MIC: MIC E. faecalis; for MIC: E. faecalis
Protocol: as §1

[4] = test system: Escherichia coli ATCC 25922; experiment: Antimicrobial assay, MIC determination (EUCAST); format: cell-based; settings: for Selectivity index EC50/MIC: MIC E. coli; for MIC: E. coli
Protocol: as §1

[5] = test system: Pseudomonas aeruginosa ATCC 27853; experiment: Antimicrobial assay, MIC determination (EUCAST); format: cell-based; settings: for Selectivity index EC50/MIC: MIC P. aeruginosa; for MIC: P. aeruginosa
Protocol: as §1

Caco-2 cells [6] = experiment: LDH release assay on Caco-2 cells; format: cell-based; settings: Caco-2, concentration causing 50% LDH release, mean ± SD
Protocol: (§2) Colorectal-carcinoma-derived epithelial Caco-2 cells (European Collection of Cell Cultures) and airway epithelial Calu-3 cells (American Type Culture Collection; ATCC) were cultured in DMEM supplemented with 10% of FBS and 1% of an antibiotic–antimycotic mixture. Erythrocytes were collected from mice blood. The cytotoxicity of the N-benzyl quaternary ammonium surfactants derived from leucine in comparison to the commercial BAC was studied by performing two cytotoxicity assays (MTS and LDH as indicators of metabolic activity and membrane integrity, respectively) and by a haemolytic assay. The assays were conducted as reported in our previous publications. EC50 values from the MTS assay (concentration of surfactant that causes 50% cell death) and the LDH assay (concentration of surfactants that causes 50% LDH release from cells), as well as HC50 values from the haemolytic assay (concentration of surfactants that causes 50% haemoglobin release from erythrocytes) were calculated using a nonlinear regression model (Prism version 5.0, GraphPad Inc., San Diego, CA, USA) as follows:(3) Y=BOTTOM+Top−Bottom/1+10^(LogEC50−x) Hill Slope where Top and Bottom are plateaux in the units of the Y axis.

erythrocytes = experiment: Haemolytic assay; format: cell-based, mice; settings: concentration causing 50% haemoglobin release from erythrocytes, mean ± SD
Protocol: as §2

Calu-3 cells [7] = experiment: LDH release assay on Calu-3 cells; format: cell-based; settings: Calu-3, concentration causing 50% LDH release, mean ± SD
Protocol: as §2

[8] = Surface tension measurements (De Nouy ring tensiometry); format: physicochemical; settings: for 10^6 Γmax (surface excess concentration): Gibbs equation from tensiometry; for 10^6 Γmax (surface excess concentration) / CMC / γCMC (surface tension at CMC): 25 °C; for 10^6 Γmax (surface excess concentration) / Amin (area per molecule at water–air interface): mean ± SD; for Amin (area per molecule at water–air interface): derived from Γmax; for CMC / γCMC (surface tension at CMC): ultrapure water, tensiometry, mean ± SD of three replicates
Protocol: Different concentrations for each surfactant were prepared by dissolving the compounds in ultrapure water. Their ability to decrease air–water surface tension was studied at 25 °C using a DCA-100 tensiometer (First Ten Angstrom, Portsmouth, VA, USA) according to the De Nouy ring method. Each recorded surface tension value was the mean of three consecutive measurements. The ‘breakpoint’ of the plot of surface tension versus concentration of surfactant was used to calculate the critical micelle concentration (CMC, i.e., the minimum concentration at which surfactants aggregate to form micelles) and the surface tension at CMC (γCMC). The “breakpoint” is the point of intersection of the two lines fitting the experimental data by a linear regression model (Prism version 5.0, GraphPad Inc., San Diego, CA, USA). Tensiometric measurements allowed for the calculation of an additional two parameters related to the surface behaviour of surfactants. The first is the ‘surface excess concentration’, Γmax, which is a measure of how many surfactant molecules are adsorbed at the air–water interface, which was calculated using the Gibbs equation:(1) Γmax=1/2.303 nRT (δγ/δlogC) where R is the gas constant (8.314 J/mol K); T is the absolute temperature (K); n is equal to 1 for single chain ionic surfactants displaying only one ionisable group; and dγ/d log C can be calculated from the slope of the straight section before the CMC in the plot of surface tension versus concentration of the surfactant.
The other parameter is the area occupied by a single molecule of surfactant at the water–air interface (As), and is derived from Γmax through the equation:(2) Amin= 10^18/NΓmax.
All analyses were performed in triplicate.

Caco-2 cells [9] = experiment: MTS cytotoxicity assay on Caco-2 cells; format: cell-based; settings: Caco-2, concentration causing 50% reduction of viable cells, mean ± SD
Protocol: as §2

Calu-3 cells [10] = experiment: MTS cytotoxicity assay on Calu-3 cells; format: cell-based; settings: Calu-3, concentration causing 50% reduction of viable cells, mean ± SD
Protocol: as §2

[11] = Candida albicans, ATCC24433, read-out: MIC
[12] = Staphylococcus aureus, ATCC25923, read-out: MIC
[13] = Enterococcus faecalis, ATCC29212, read-out: MIC
[14] = Escherichia coli, ATCC25922, read-out: MIC
[15] = Pseudomonas aeruginosa, ATCC27853, read-out: MIC

| Compound | MIC [1, 11] | Selectivity index EC50/MIC ([1]; EC50 from MTS assay on Caco-2) | Selectivity index EC50/MIC ([1]; EC50 from MTS assay on Calu-3) | Selectivity index EC50/MIC ([2]; EC50 from MTS assay on Caco-2) | Selectivity index EC50/MIC ([2]; EC50 from MTS assay on Calu-3) | MIC [2, 12] | Selectivity index EC50/MIC ([3]; EC50 from MTS assay on Calu-3) | MIC [3, 13] | Selectivity index EC50/MIC ([4]; EC50 from MTS assay on Caco-2) | Selectivity index EC50/MIC ([4]; EC50 from MTS assay on Calu-3) | MIC [4, 14] | Selectivity index EC50/MIC ([5]; EC50 from MTS assay on Caco-2) | Selectivity index EC50/MIC ([5]; EC50 from MTS assay on Calu-3) | MIC [5, 15] | EC50 (Caco-2 cells [6]; Homo sapiens) [µM] | Haemolysis HC50 (erythrocytes) [mM] | 10^6 Γmax (surface excess concentration) [8] [mol/m^2] | Amin (area per molecule at water–air interface) [8] [A^2] | CMC [8] | γCMC (surface tension at CMC) [8] | further results |
| --- | --- | --- | --- | --- | --- | --- | --- | --- | --- | --- | --- | --- | --- | --- | --- | --- | --- | --- | --- | --- | --- |
| CCCCCCCCCCOC(=O)C(CC(C)C)[N+](C)(C)Cc1ccccc1 (stereo not shown) [C10 LEU BENZ] | 124 µM and 64 µg/mL | 1.3 | 0.9 | 42.1 | 30.8 | 2 µg/mL and 3.8 µM | 15.2 | 4 µg/mL and 7.7 µM | 1.3 | 0.9 | 64 µg/mL and 124 µM | 0.6 | 0.5 | > 128 µg/mL and > 248 µM | 158 ± 15 | 0.148 ± 0.018 | 6.76 ± 0.22 | 24.09 ± 1.45 | 1.88 ± 0.16 mM | around 30 mN/m and 31.75 ± 0.09 mN/m | EC50 (Calu-3 cells [7]; Homo sapiens): 187 ± 24 µM; EC50 (Caco-2 cells [9]; Homo sapiens): 160 ± 7 µM; EC50 (Calu-3 cells [10]; Homo sapiens): 117 ± 5 µM |
| CCCCCCCCCCCCOC(=O)C(CC(C)C)[N+](C)(C)Cc1ccccc1 (stereo not shown) [C12 LEU BENZ] | 29.3 µM and 16 µg/mL | 0.5 | 0.4 | 1.5 | 1.0 | 4 µg/mL to 8 µg/mL and 10.6 µM | 1.0 | 4 µg/mL to 8 µg/mL and 10.6 µM | 0.3 | 0.2 | 32 µg/mL and 58.6 µM | 0.07 | 0.05 | 128 µg/mL and 235 µM | 19 ± 2 | 0.054 ± 0.004 | 6.10 ± 0.24 | 27.27 ± 1.34 | around 1 mM and 0.92 ± 0.11 mM | ~40 mN/m and 40.38 ± 0.13 mN/m | Selectivity index EC50/MIC ([3]; EC50 from MTS assay on Caco-2): 1.5; EC50 (Calu-3 cells [7]; Homo sapiens): 19 ± 3 µM; EC50 (Caco-2 cells [9]; Homo sapiens): 16 ± 3 µM; EC50 (Calu-3 cells [10]; Homo sapiens): 11 ± 2 µM |
| CCCCCCCCCCCCCCOC(=O)C(CC(C)C)[N+](C)(C)Cc1ccccc1 (stereo not shown) [C14 LEU BENZ] | 13.9 µM and 8 µg/mL | 0.9 | 1.0 | 5 | 5.4 | 1 µg/mL to 2 µg/mL and 2.6 µM | 4.0 | 2 µg/mL and 3.5 µM | 0.5 | 0.5 | 16 µg/mL and 27.9 µM | 0.06 | 0.06 | 128 µg/mL and 223 µM | 12 ± 2 | 0.027 ± 0.006 | 7.39 ± 0.31 | 22.46 ± 1.11 | 0.12 ± 0.08 mM | ~40 mN/m and 40.35 ± 0.11 mN/m | Selectivity index EC50/MIC ([3]; EC50 from MTS assay on Caco-2): 3.7; EC50 (Calu-3 cells [7]; Homo sapiens): 14 ± 2 µM; EC50 (Caco-2 cells [9]; Homo sapiens): 13 ± 2 µM; EC50 (Calu-3 cells [10]; Homo sapiens): 14 ± 2 µM |
| Benzalkonium chloride [BAC, reference compound] |  | 2.9 | 1.9 | 11.5 | 7.7 |  | 7.7 |  | 2.9 | 1.9 |  | 0.4 | 0.2 |  |  | 0.064 ± 0.004 | 5.35 ± 0.27 | 31.08 ± 1.60 | around 1 mM and 1.02 ± 0.06 mM | around 30 mN/m and 31.16 ± 0.05 mN/m | MIC [1]: 4 mg/L; MIC ([1]; read-out: MIC): 11.5 µM; MIC [2]: 1 mg/L; MIC ([2]; read-out: MIC): 2.9 µM; MIC [3]: 1 mg/L; MIC ([3]; read-out: MIC): 2.9 µM; Selectivity index EC50/MIC ([3]; EC50 from MTS assay on Caco-2): 11.5; MIC [4]: 4 mg/L; MIC ([4]; read-out: MIC): 11.5 µM; MIC [5]: 32 mg/L; MIC ([5]; read-out: MIC): 91.8 µM; EC50 (Caco-2 cells [6]): 48 ± 4 µM; EC50 (Calu-3 cells [7]): 29 ± 5 µM; EC50 (Caco-2 cells [9]): 33 ± 1 µM; EC50 (Calu-3 cells [10]): 22 ± 5 µM |
